Measurements reported in US9040545B2, “Heterocyclyl pyrazolopyrimidine analogues as selective JAK inhibitors” (Cellzome Limited, priority 2010, dated 2015).

How the values were obtained:
[1] = target: T1, Aurora A (Homo sapiens, UniProt O14965); assay: Kinobeads assay, Aurora A; assay type: binding; conditions: for IC50: lysate of pervanadate-treated Jurkat cells, read-out: Inhibition values (IC50) Aur A
T1 construct: cell lysates from Jurkat cells (ATCC TIB-152) used; endogenous in cells; host or cells: Jurkat cells (ATCC TIB-152), treated with pervanadate
T1 sequence (O14965 1-403): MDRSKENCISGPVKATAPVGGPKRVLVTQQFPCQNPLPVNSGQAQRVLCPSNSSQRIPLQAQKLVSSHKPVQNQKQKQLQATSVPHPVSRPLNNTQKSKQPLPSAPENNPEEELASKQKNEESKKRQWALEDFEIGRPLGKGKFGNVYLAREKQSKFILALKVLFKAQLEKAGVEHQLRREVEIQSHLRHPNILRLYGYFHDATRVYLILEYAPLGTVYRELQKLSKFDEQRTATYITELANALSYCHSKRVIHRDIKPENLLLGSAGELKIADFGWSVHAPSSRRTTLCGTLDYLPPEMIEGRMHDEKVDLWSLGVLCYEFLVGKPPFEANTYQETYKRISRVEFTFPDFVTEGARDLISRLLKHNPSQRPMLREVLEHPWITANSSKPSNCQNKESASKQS

[2] = target: T2, JAK2 (Homo sapiens, UniProt O60674); assay: Kinobeads assay, JAK2; assay type: binding; conditions: mixed Molt4/Ramos lysate, read-out: Inhibition values (IC50) JAK2
T2 construct: endogenous in cells; host or cells: mixed Molt4/Ramos lysate (1:2)
T2 sequence (O60674 whole entry): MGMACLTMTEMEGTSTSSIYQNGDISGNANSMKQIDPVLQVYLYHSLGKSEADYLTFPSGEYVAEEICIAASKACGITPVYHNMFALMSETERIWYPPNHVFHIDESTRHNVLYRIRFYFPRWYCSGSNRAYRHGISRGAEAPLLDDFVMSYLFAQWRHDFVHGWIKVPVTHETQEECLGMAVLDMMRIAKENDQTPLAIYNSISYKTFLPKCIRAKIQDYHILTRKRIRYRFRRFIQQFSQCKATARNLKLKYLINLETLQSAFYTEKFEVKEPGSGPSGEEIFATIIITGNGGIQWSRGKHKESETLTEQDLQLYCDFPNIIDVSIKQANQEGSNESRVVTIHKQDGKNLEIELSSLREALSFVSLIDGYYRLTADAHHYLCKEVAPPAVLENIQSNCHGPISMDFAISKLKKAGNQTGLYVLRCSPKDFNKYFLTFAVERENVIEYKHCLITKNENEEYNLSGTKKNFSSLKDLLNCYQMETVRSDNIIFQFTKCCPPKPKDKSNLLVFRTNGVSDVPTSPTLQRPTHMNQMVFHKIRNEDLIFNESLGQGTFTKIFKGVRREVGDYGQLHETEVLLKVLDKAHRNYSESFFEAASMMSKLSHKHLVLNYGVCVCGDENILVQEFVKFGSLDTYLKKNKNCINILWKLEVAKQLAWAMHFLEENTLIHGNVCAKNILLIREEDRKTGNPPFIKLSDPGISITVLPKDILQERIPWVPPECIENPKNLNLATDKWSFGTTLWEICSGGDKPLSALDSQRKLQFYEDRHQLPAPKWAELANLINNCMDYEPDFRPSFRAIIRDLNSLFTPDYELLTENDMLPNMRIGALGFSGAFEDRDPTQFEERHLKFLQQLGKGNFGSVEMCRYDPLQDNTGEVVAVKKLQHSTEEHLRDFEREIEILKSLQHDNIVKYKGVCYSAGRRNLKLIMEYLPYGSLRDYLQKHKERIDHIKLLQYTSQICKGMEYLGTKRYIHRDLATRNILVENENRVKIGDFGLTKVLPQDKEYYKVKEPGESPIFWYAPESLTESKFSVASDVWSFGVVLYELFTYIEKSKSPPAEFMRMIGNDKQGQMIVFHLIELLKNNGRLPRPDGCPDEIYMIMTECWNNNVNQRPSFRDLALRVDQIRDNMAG
How it was run: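 Competition binding in mixed Molt4/Ramos cell lysate (1:2, 10 mg/mL protein) with Kinobeads carrying immobilized aminopyrido-pyrimidine ligand, 3 h in cold room; 9-step 1:3 compound dilution series from 5 mM DMSO stock. Bead-bound JAK2/JAK3 eluted and quantified by antibody dot blot with infrared detection; IC50 from dose-response curves.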

SMILES | JAK3/AurA Fold Selectivity [1] | IC50 [1] [µM] | IC50 [2] [µM]
Cn1cc(Nc2ncc3cnn(Cc4c(F)c(F)cc(C(=O)N5CCOCC5)c4F)c3n2)cn1 [Example 110, morpholino(2,4,5-trifluoro-3-((6-((1-methyl-1H-pyrazol-4-yl)amino)-1H-pyrazolo[3,4-d]pyrimidin-1-yl)methyl)phenyl)methanone] | >50 Fold | 1 to 10 | 0.1 to 1
O=C(c1cc(F)c(F)c(Cn2ncc3cnc(Nc4cnn(CCO)c4)nc32)c1F)N1CCOCC1 [Example 111, morpholino(2,4,5-trifluoro-3-((6-((1-(2-hydroxyethyl)-1H-pyrazol-4-yl)amino)-1H-pyrazolo[3,4-d]pyrimidin-1-yl)methyl)phenyl)methanone] | 10-50 Fold | 0.1 to 1 | 1 to 10
C[C@H]1COCCN1c1cccc(Cn2ncc3cnc(Nc4cnn(C)c4)nc32)c1 [Example 112, (S)-N-(1-methyl-1H-pyrazol-4-yl)-1-(3-(3-methylmorpholino)benzyl)-1H-pyrazolo[3,4-d]pyrimidin-6-amine] | 10-50 Fold | 0.1 to 1 | ≥ 10
C[C@@H]1COCCN1c1cccc(Cn2ncc3cnc(Nc4cnn(C)c4)nc32)c1 [Example 113, (R)-N-(1-methyl-1H-pyrazol-4-yl)-1-(3-(3-methylmorpholino)benzyl)-1H-pyrazolo[3,4-d]pyrimidin-6-amine] | >50 Fold | 1 to 10 | ≥ 10
Cn1cc(Nc2ncc3cnn(Cc4cccc(NC5COC5)c4)c3n2)cn1 [Example 114, N-(1-methyl-1H-pyrazol-4-yl)-1-(3-(oxetan-3-ylamino)benzyl)-1H-pyrazolo[3,4-d]pyrimidin-6-amine] | 3-10 Fold | < 0.1 | 1 to 10
Cn1cc(Nc2ncc3cnn(Cc4cccc(-c5cnn(C)c5)c4)c3n2)cn1 [Example 115, N-(1-methyl-1H-pyrazol-4-yl)-1-(3-(1-methyl-1H-pyrazol-4-yl)benzyl)-1H-pyrazolo[3,4-d]pyrimidin-6-amine] | 10-50 Fold | 0.1 to 1 | 1 to 10
CCn1cc(-c2cccc(Cn3ncc4cnc(Nc5cnn(C)c5)nc43)c2)cn1 [Example 116, 1-(3-(1-ethyl-1H-pyrazol-4-yl)benzyl)-N-(1-methyl-1H-pyrazol-4-yl)-1H-pyrazolo[3,4-d]pyrimidin-6-amine] | 10-50 Fold | 0.1 to 1 | 1 to 10
CC(C)n1cc(-c2cccc(Cn3ncc4cnc(Nc5cnn(C)c5)nc43)c2)cn1 [Example 117, 1-(3-(1-isopropyl-1H-pyrazol-4-yl)benzyl)-N-(1-methyl-1H-pyrazol-4-yl)-1H-pyrazolo[3,4-d]pyrimidin-6-amine] | 3-10 Fold | 0.1 to 1 | ≥ 10
Cn1cc(Nc2ncc3cnn(Cc4cccc(-c5cn[nH]c5)c4)c3n2)cn1 [Example 118, 1-(3-(1H-pyrazol-4-yl)benzyl)-N-(1-methyl-1H-pyrazol-4-yl)-1H-pyrazolo[3,4-d]pyrimidin-6-amine] | 10-50 Fold | 1 to 10 | ≥ 10
CCCn1cc(-c2cccc(Cn3ncc4cnc(Nc5cnn(C)c5)nc43)c2)cn1 [Example 119, N-(1-methyl-1H-pyrazol-4-yl)-1-(3-(1-propyl-1H-pyrazol-4-yl)benzyl)-1H-pyrazolo[3,4-d]pyrimidin-6-amine] | 10-50 Fold | 1 to 10 | ≥ 10
Cn1cc(Nc2ncc3cnn(Cc4cccc(-c5cnn(CC(N)=O)c5)c4)c3n2)cn1 [Example 120, 2-(4-(3-((6-((1-methyl-1H-pyrazol-4-yl)amino)-1H-pyrazolo[3,4-d]pyrimidin-1-yl)methyl)phenyl)-1H-pyrazol-1-yl)acetamide] | 10-50 Fold | 0.1 to 1 | 1 to 10
Cn1cc(Nc2ncc3cnn(Cc4cccc(-c5cnn(CCO)c5)c4)c3n2)cn1 [Example 121, 2-(4-(3-((6-((1-methyl-1H-pyrazol-4-yl)amino)-1H-pyrazolo[3,4-d]pyrimidin-1-yl)methyl)phenyl)-1H-pyrazol-1-yl)ethanol] | 10-50 Fold | 0.1 to 1 | 1 to 10
Cn1cc(-c2cccc(Cn3ncc4cnc(Nc5cnn(CCO)c5)nc43)c2)cn1 [Example 122, 2-(4-((1-(3-(1-methyl-1H-pyrazol-4-yl)benzyl)-1H-pyrazolo[3,4-d]pyrimidin-6-yl)amino)-1H-pyrazol-1-yl)ethanol] | 10-50 Fold | 0.1 to 1 | 1 to 10
Cn1cc(Nc2ncc3cnn(Cc4cccc(-c5cnn(C)c5)c4F)c3n2)cn1 [Example 123, 1-(2-fluoro-3-(1-methyl-1H-pyrazol-4-yl)benzyl)-N-(1-methyl-1H-pyrazol-4-yl)-1H-pyrazolo[3,4-d]pyrimidin-6-amine] | 10-50 Fold | 1 to 10 | 1 to 10
Cn1cc(-c2cccc(Cn3ncc4cnc(Nc5cnn(CCO)c5)nc43)c2F)cn1 [Example 124, 2-(4-((1-(2-fluoro-3-(1-methyl-1H-pyrazol-4-yl)benzyl)-1H-pyrazolo[3,4-d]pyrimidin-6-yl)amino)-1H-pyrazol-1-yl)ethanol] | 10-50 Fold | 0.1 to 1 | 1 to 10
Cn1cc(Nc2ncc3cnn(Cc4cc(F)cc(-c5cnn(C)c5)c4)c3n2)cn1 [Example 125, 1-(3-fluoro-5-(1-methyl-1H-pyrazol-4-yl)benzyl)-N-(1-methyl-1H-pyrazol-4-yl)-1H-pyrazolo[3,4-d]pyrimidin-6-amine] | 10-50 Fold | 1 to 10 | 0.1 to 1
Cn1cc(Nc2ncc3cnn(Cc4cc(-c5cnn(C)c5)cc(F)c4F)c3n2)cn1 [Example 126, 1-(2,3-difluoro-5-(1-methyl-1H-pyrazol-4-yl)benzyl)-N-(1-methyl-1H-pyrazol-4-yl)-1H-pyrazolo[3,4-d]pyrimidin-6-amine] | >50 Fold | 1 to 10 | ≥ 10
Cn1cc(-c2cc(F)c(F)c(Cn3ncc4cnc(Nc5cnn(CCO)c5)nc43)c2)cn1 [Example 127, 2-(4-((1-(2,3-difluoro-5-(1-methyl-1H-pyrazol-4-yl)benzyl)-1H-pyrazolo[3,4-d]pyrimidin-6-yl)amino)-1H-pyrazol-1-yl)ethanol] | 10-50 Fold | 0.1 to 1 | 1 to 10
